The numbers were not newly measured in patent US20230398069A1, “ETOPOSIDE TONIRIBATE FORMULATION” (CELLACT PHARMA GMBH, priority 2020, published 2023), which cites them from elsewhere.

The conditions of the data set: API.

As for `COc1cc([C@@H]2c3cc4c(cc3[C@@H](O[C@@H]3O[C@@H]5CO[C@@H](C)O[C@H]5[C@@H](O)[C@H]3O)[C@H]3COC(=O)[C@H]23)OCO4)cc(OC)c1OC(=O)OCC1COC(C)(C)O1` (some centres unmarked) [Etoposide toniribate], the solubility in water result is recorded as “poorly soluble in water”; the “stability at acidic and basic pH” value is “unstable at acidic and basic pH”.
